Legend:
[1] = test system: murine CD8^+ T cells; test: Cell growth and viability of murine CD8^+ T cells; format: cell-based; conditions: 7 days
Protocol: After 7 days of culture, we assessed the abundance of CD62L^hiCD44^hi (TCM-like) T cells by flow cytometry (Fig. 1a). We additionally determined the effect of each compound on cell growth and viability (Fig. 1b and Extended Data Fig. 1a).
B16F10 cells were originally purchased from ATCC (catalogue no. CRL-6475) and genetically modified to express OVA, enhanced green fluorescent protein (GFP) and neomycin phosphotransferase. The resulting OVA expression B16F10-OVA cells were cultured in DMEM (catalogue no. 11995065, Thermo Fisher Scientific) containing 0.75 mg ml^−1 G418 sulphate (catalogue no. 10131027, Thermo Fisher Scientific). HEK 293T cells were purchased from Takara Bio (catalogue no. 632180) and cultured in DMEM. SKOV3 was purchased from ATCC (catalogue no. HTB-77) and cultured in McCoy’s 5A (Modified) Medium (catalogue no. 16600082, Thermo Fisher Scientific). Raji-GFP-Luc cells were purchased from Biocytogen (catalogue no. B-HCL-010) and cultured in Roswell Park Memorial Institute (RPMI) 1640 (catalogue no. 21875, Thermo Fisher Scientific). Jurkat cells were purchased from ATCC (catalogue no. TIB-152) and cultured in RPMI 1640. RAW 264.7 cells were purchased from ATCC (catalogue no. TIB-71) and cultured in RPMI 1640. HeLa cells were a gift from P. Lehner (University of Cambridge) and were authenticated using short tandem repeat profiling (Eurofins Genomics). HeLa cells were cultured in DMEM. MEFs were isolated from macerated embryonic day (E) 12.5–13.5 embryos. A whole litter of embryos without sex selection were used. Stable transfection with SV40 large T antigen passage 3 was used for immortalization. Cells were subcultured over 17 more passages and maintained in DMEM[63]. All media was supplemented with 10% FCS (catalogue no. 10270106, Gibco), 100 U ml^−1 penicillin and 100 µg ml^−1 streptomycin (catalogue no. P4333, Sigma-Aldrich). […] Cell number and viability was determined using the ADAM-MC Automated Cell Counter (NanoEntek), CellDrop Automated Cell Counter (DeNovix) or TC20 Automated Cell Counter (Bio-Rad Laboratories). […]

[2] = test system: H3 lysine methylation in human CD8^+ T cells; test: Histone 3 methylation western blot; format: cell-based; conditions: 7 days
Protocol: Histones were extracted with the Histone Extraction Kit (catalogue no. ab113476, Abcam). Proteins were separated by SDS–PAGE and transferred to polyvinylidene fluoride (PVDF) membranes. Total protein stain was obtained using non-stain protein labelling reagent (catalogue no. A44448, Thermo Fisher Scientific). Membranes were then blocked in 5% milk prepared in PBS plus 0.05% Tween-20, incubated with primary antibodies overnight at 4 °C and horseradish peroxidase (HRP)-conjugated secondary antibodies (catalogue nos. HAF008 and HAF007, R&D Systems) for 1 h the next day. After enhanced chemiluminescence (ECL) exposure (catalogue no. GERPN2106, Sigma-Aldrich), membranes were imaged using an iBrightCL1000 (Thermo Fisher Scientific). […] 13998); and anti-H3k27ac (catalogue no.

SMILES: CCCCCCCCOC(=O)[C@@H](O)CCC(=O)[O-].[Na+] [octyl ester S-2HG, (2S)-2-hydroxyglutaric acid octyl ester sodium salt, reference compound]
- concentration from which cell growth is decreased [1]: ≥ 400 µM

SMILES: O=C(O)CCC(=O)C(=O)O [αKG, α-ketoglutarate, reference compound]
- H3K9me2 levels on addition of αKG to DEG ([2]; 500 µM αKG with 500 µM DEG): not reduced
- DEG-induced increase in H3K9 and H3K27 trimethylation on addition of αKG ([2]; equimolar αKG (500 µM) with 500 µM DEG): abrogated

Source: publication PMC10590756, “Glutarate regulates T cell metabolism and anti-tumour immunity” (Nature Metabolism, 2023)
